# In patent US9630977B2, “Cephalosporin derivatives and pharmaceutical compositions thereof” (Legochem Biosciences, Inc., priority 2011, dated 2017):
# Test system: A. baumannii 46
# Assay: In vitro antibacterial activity test (broth microdilution)
# Format: cell-based
# Details: Acinetobacter baumannii, 46, A. baumannii 46
# Method: (§1) To evaluate antibacterial activity of each of the compounds of Examples 1 to 68, in vitro antibacterial activity test was performed.
# (§2) The in vitro antibacterial activity was evaluated by measuring MIC90 (ug/mL) of each of the compounds of Examples 1 to 68, which is defined as the lowest concentration of an antibiotic that will inhibit the visible growth of 90% of microorganisms after incubation as compared with a control group to which the antibiotic is not treated. MIC90 values were measured by the broth microdilution method developed by the Clinical and Laboratory Standards Institute (CLSI) (see CLSI M7-A5, Methods for Dilution Antimicrobial Susceptibility Test for Bacteria that Grow Aerobically-Fifth Edition (2000): CLSI, Villanova, Pa.).
# (§3) In vitro antibacterial activity was measured with respect to the following 19 clinical isolates: M. catarrhalis; P. aeruginosa (5 strains); K. pneumoniae (6 strains); A. baumannii (3 strains); E. coli (2 strains); A. calcoaceticus; and E. cloacae.
# (§4) Test compounds each (the cephalosporin derivative compounds prepared in Examples 1 to 68) were dissolved in DMSO at the concentration of 10,240 ug/mL, were diluted by two fold with DMSO, and then were diluted by twenty fold with sterilized distilled water. The final concentration in the antibacterial activity test was in the range of […] to 128 ug/mL, and the final concentration of DMSO used as an adjuvant was 2.5% (V/V).
row,Structure (SMILES),MIC90
1,CC(C)(O/N=C(\C(=O)N[C@@H]1C(=O)N2C(C(=O)[O-])=C(/C=C/C[n+]3cnc(N)c(NCCCN)c3)CSC12)c1nc(N)sc1Cl)C(=O)O (stereo partly shown) [Compound 57],1 µg/mL

# Test system: A. baumannii 49
# Assay: as above
# Format: cell-based
# Details: Acinetobacter baumannii, 49, A. baumannii 49
# Method: as §1, §2, §3, §4
row,Structure (SMILES),MIC90
1,CC(C)(O/N=C(\C(=O)N[C@@H]1C(=O)N2C(C(=O)[O-])=C(/C=C/C[n+]3cnc(N)c(NCCCN)c3)CSC12)c1nc(N)sc1Cl)C(=O)O (stereo partly shown) [Compound 57],64 µg/mL

# Test system: A. baumannii 52
# Assay: as above
# Format: cell-based
# Details: Acinetobacter baumannii, 52
# Method: as §1, §2, §3, §4
row,Structure (SMILES),MIC90
1,CC(C)(O/N=C(\C(=O)N[C@@H]1C(=O)N2C(C(=O)[O-])=C(/C=C/C[n+]3cnc(N)c(NCCCN)c3)CSC12)c1nc(N)sc1Cl)C(=O)O (stereo partly shown) [Compound 57],64 µg/mL

# Test system: A. calcoaceticus ATCC15473
# Assay: as above
# Format: cell-based
# Details: Acinetobacter calcoaceticus, ATCC15473, A. calcoaceticus ATCC15473
# Method: as §1, §2, §3, §4
row,Structure (SMILES),MIC90
1,CC(C)(O/N=C(\C(=O)N[C@@H]1C(=O)N2C(C(=O)[O-])=C(/C=C/C[n+]3cnc(N)c(NCCCN)c3)CSC12)c1nc(N)sc1Cl)C(=O)O (stereo partly shown) [Compound 57],0.5 µg/mL

# Test system: E. cloacae β19
# Assay: as above
# Format: cell-based
# Details: Enterobacter cloacae
# Method: as §1, §2, §3, §4
row,Structure (SMILES),MIC90
1,CC(C)(O/N=C(\C(=O)N[C@@H]1C(=O)N2C(C(=O)[O-])=C(/C=C/C[n+]3cnc(N)c(NCCCN)c3)CSC12)c1nc(N)sc1Cl)C(=O)O (stereo partly shown) [Compound 57],8 µg/mL

# Test system: E. coli AG100
# Assay: as above
# Format: cell-based
# Details: Escherichia coli, AG100
# Method: as §1, §2, §3, §4
row,Structure (SMILES),MIC90
1,CC(C)(O/N=C(\C(=O)N[C@@H]1C(=O)N2C(C(=O)[O-])=C(/C=C/C[n+]3cnc(N)c(NCCCN)c3)CSC12)c1nc(N)sc1Cl)C(=O)O (stereo partly shown) [Compound 57],0.125 µg/mL

# Test system: E. coli β4
# Assay: as above
# Format: cell-based
# Details: Escherichia coli
# Method: as §1, §2, §3, §4
row,Structure (SMILES),MIC90
1,CC(C)(O/N=C(\C(=O)N[C@@H]1C(=O)N2C(C(=O)[O-])=C(/C=C/C[n+]3cnc(N)c(NCCCN)c3)CSC12)c1nc(N)sc1Cl)C(=O)O (stereo partly shown) [Compound 57],0.125 µg/mL

# Test system: K. pneumoniae 2011E
# Assay: as above
# Format: cell-based
# Details: Klebsiella pneumoniae, 2011E
# Method: as §1, §2, §3, §4
row,Structure (SMILES),MIC90
1,CC(C)(O/N=C(\C(=O)N[C@@H]1C(=O)N2C(C(=O)[O-])=C(/C=C/C[n+]3cnc(N)c(NCCCN)c3)CSC12)c1nc(N)sc1Cl)C(=O)O (stereo partly shown) [Compound 57],0.25 µg/mL

# Test system: K. pneumoniae β10
# Assay: as above
# Format: cell-based
# Details: Klebsiella pneumoniae
# Method: as §1, §2, §3, §4
row,Structure (SMILES),MIC90
1,CC(C)(O/N=C(\C(=O)N[C@@H]1C(=O)N2C(C(=O)[O-])=C(/C=C/C[n+]3cnc(N)c(NCCCN)c3)CSC12)c1nc(N)sc1Cl)C(=O)O (stereo partly shown) [Compound 57],0.25 µg/mL

# Test system: K. pneumoniae β11
# Assay: as above
# Format: cell-based
# Details: Klebsiella pneumoniae
# Method: as §1, §2, §3, §4
row,Structure (SMILES),MIC90
1,CC(C)(O/N=C(\C(=O)N[C@@H]1C(=O)N2C(C(=O)[O-])=C(/C=C/C[n+]3cnc(N)c(NCCCN)c3)CSC12)c1nc(N)sc1Cl)C(=O)O (stereo partly shown) [Compound 57],128 µg/mL

# Test system: K. pneumoniae β13
# Assay: as above
# Format: cell-based
# Details: Klebsiella pneumoniae
# Method: as §1, §2, §3, §4
row,Structure (SMILES),MIC90
1,CC(C)(O/N=C(\C(=O)N[C@@H]1C(=O)N2C(C(=O)[O-])=C(/C=C/C[n+]3cnc(N)c(NCCCN)c3)CSC12)c1nc(N)sc1Cl)C(=O)O (stereo partly shown) [Compound 57],0.5 µg/mL

# Test system: K. pneumoniae β14
# Assay: as above
# Format: cell-based
# Details: Klebsiella pneumoniae
# Method: as §1, §2, §3, §4
row,Structure (SMILES),MIC90
1,CC(C)(O/N=C(\C(=O)N[C@@H]1C(=O)N2C(C(=O)[O-])=C(/C=C/C[n+]3cnc(N)c(NCCCN)c3)CSC12)c1nc(N)sc1Cl)C(=O)O (stereo partly shown) [Compound 57],1 µg/mL

# Test system: K. pneumoniae β9
# Assay: as above
# Format: cell-based
# Details: Klebsiella pneumoniae
# Method: as §1, §2, §3, §4
row,Structure (SMILES),MIC90
1,CC(C)(O/N=C(\C(=O)N[C@@H]1C(=O)N2C(C(=O)[O-])=C(/C=C/C[n+]3cnc(N)c(NCCCN)c3)CSC12)c1nc(N)sc1Cl)C(=O)O (stereo partly shown) [Compound 57],1 µg/mL

# Test system: M. catarrhalis 2524
# Assay: as above
# Format: cell-based
# Details: Moraxella catarrhalis, 2524
# Method: as §1, §2, §3, §4
row,Structure (SMILES),MIC90
1,CC(C)(O/N=C(\C(=O)N[C@@H]1C(=O)N2C(C(=O)[O-])=C(/C=C/C[n+]3cnc(N)c(NCCCN)c3)CSC12)c1nc(N)sc1Cl)C(=O)O (stereo partly shown) [Compound 57],< 0.0625 µg/mL

# Test system: P. aeruginosa 1912E
# Assay: as above
# Format: cell-based
# Details: Pseudomonas aeruginosa, 1912E
# Method: as §1, §2, §3, §4
row,Structure (SMILES),MIC90
1,CC(C)(O/N=C(\C(=O)N[C@@H]1C(=O)N2C(C(=O)[O-])=C(/C=C/C[n+]3cnc(N)c(NCCCN)c3)CSC12)c1nc(N)sc1Cl)C(=O)O (stereo partly shown) [Compound 57],0.5 µg/mL

# Test system: P. aeruginosa 37
# Assay: as above
# Format: cell-based
# Details: Pseudomonas aeruginosa, 37, P. aeruginosa 37
# Method: as §1, §2, §3, §4
row,Structure (SMILES),MIC90
1,CC(C)(O/N=C(\C(=O)N[C@@H]1C(=O)N2C(C(=O)[O-])=C(/C=C/C[n+]3cnc(N)c(NCCCN)c3)CSC12)c1nc(N)sc1Cl)C(=O)O (stereo partly shown) [Compound 57],8 µg/mL

# Test system: P. aeruginosa 40
# Assay: as above
# Format: cell-based
# Details: Pseudomonas aeruginosa, 40
# Method: as §1, §2, §3, §4
row,Structure (SMILES),MIC90
1,CC(C)(O/N=C(\C(=O)N[C@@H]1C(=O)N2C(C(=O)[O-])=C(/C=C/C[n+]3cnc(N)c(NCCCN)c3)CSC12)c1nc(N)sc1Cl)C(=O)O (stereo partly shown) [Compound 57],4 µg/mL

# Test system: P. aeruginosa 43
# Assay: as above
# Format: cell-based
# Details: Pseudomonas aeruginosa, 43
# Method: as §1, §2, §3, §4
row,Structure (SMILES),MIC90
1,CC(C)(O/N=C(\C(=O)N[C@@H]1C(=O)N2C(C(=O)[O-])=C(/C=C/C[n+]3cnc(N)c(NCCCN)c3)CSC12)c1nc(N)sc1Cl)C(=O)O (stereo partly shown) [Compound 57],> 128 µg/mL

# Test system: P. aeruginosa 6065Y
# Assay: as above
# Format: cell-based
# Details: Pseudomonas aeruginosa, 6065Y
# Method: as §1, §2, §3, §4
row,Structure (SMILES),MIC90
1,CC(C)(O/N=C(\C(=O)N[C@@H]1C(=O)N2C(C(=O)[O-])=C(/C=C/C[n+]3cnc(N)c(NCCCN)c3)CSC12)c1nc(N)sc1Cl)C(=O)O (stereo partly shown) [Compound 57],16 µg/mL
